Experimental data reported in patent US20020019356A1, “HYPERBARIC OXIGENATION (HBO) AS THE METHOD FOR ENHANCEMENT EFFICIENCY OF ANTI-HIV SUBSTANCES IN INHIBITION THE HUMAN IMMUNODEFICIENCY VIRUS (HIV) REPRODUCTION AND REDUCTION OF THE CYTOTOXIC EFFECT OF THOSE SUBSTANCES AS WELL” (priority 1998, published 2002).

Assays:
Supt1 cells = assay: Viability of Supt1 cells with different AZT concentrations, with or without HBO (MTT-test); type: cell-based, human
Excerpt: 4.) Monitoring the viability by means of direct cell calculation in a Goryaev counting chamber after colouring with the excepting vital stain 0.2% trypan blue. For the direct comparison of the amounts of living cells there is used the so-called MTT-method, which is based on the capability of living cells to reduce the yellow water-soluble tetrazole salt MTT (3-(4,5)-dimethylthiazol-2-ye)-2,5-diphenyl-bromide tetrazole) into insoluble intracellular MTT-formazan crystals, whereas dead cells are not capable to do this.
A concentrated MTT solution of 10 mg/ml is prepared with a phosphate buffer solution at pH 7.4 and brought into a hollow with the cells at a 10-fold dilution rate.
After incubation over 4 hours at 37° C. the supernatant is isolated with help of microdosing tips of a special design (S-tips).
Into the hollow is added […] of DMSO as solvent. The thereupon measurable optical density is within 540 to 590 nm, i.e. in the absorption range of formazan, is direct proportional to the quantity of living cells.
(§1) 18 million Supt1 cells in 60 ml of the growth medium RPMI-1640 with 10% fetal calf serum, 2 mM L-glutamine and […] genthamycin were placed in each of 2 plastic flasks (75 cm^3), mark Costar®, USA, one of which was subjected to HBO (Ox+), and the other was used for counterchecks with intact and infected cells without a HBO exposure (Ox−).
(§2) The HBO [6] was carried out in the oxygenous pressure chamber BLKS-303M. The pressure chamber was sealed, blown out with oxygen over 7 min till an oxygen concentration of 98-100% was obtained at the outlet of the pressure chamber, whereupon the oxygen pressure in said pressure chamber was increased up to 1.5 ate. The compression rate was 1,077 ate/min and the time period of isocompression was 40 min. After having finished the HBO process, the oxygen pressure was decreased to atmospheric during 6 min.
(§3) Over 40 min after a finish of the HBO—procedure in the each well of the 24-wells plate (Nuclon®, Denmark) added 45 μL of a cell suspension (3×10^5 cell/mL) and 50 μL of a growth substance with a different concentrations of AZT.
(§4) After an incubation over two hours with the virus-containing inoculum at 37° C., the cells were there-fold washed off from residual virus by centrifugation with 300 g over 10 min in the 30-fold volume of the medium and in every well of 24-wells plate were added […] of the growth medium with corresponding AZT-concentration.
The mixed samples were cultivated in a thermostat at 37° C., 5% CO2 and 80% moisture content. […]
The monitoring results of viability of oxygenated and not-oxygenated cells Supt1, inoculated HIV-1BRU with different AZT-concentrations, are shown in Table 1.

HIV-1BRU = assay: Viral antigen content (polyclonal EIA) in supernatant of Supt1 culture infected with HIV-1BRU, with or without HBO; type: cell-based, Human Immunodeficiency Virus; design: unit not given here; conditions: Supt1/HIV-1BRU
Method: 1.) Determination of the total level of viral antigen expression by means of the method of polyclonal immunoenzyme analysis (EIA) [ABBOTT™ ELISA Kit]. […]
as §1, §2, §3
(§5) After an incubation over 2 hours at 37° C. an oxygenated and non-oxygenated samples were infected with HIV-1BRU (non-resistant to AZT) and HIV-1A216 (resistant to AZT),
(§6) After having centrifuged 24-wells plate at 300 g over 10 min, supernatant was taken out the wells by S-tips (besides […] of a cell's sediment), to which was added […] of the virus-containing supernatant of 480 TCID50.
as §4
(§7) The mixed samples were cultivated in a thermostat at 37° C., 5% CO2 and 80% moisture content.
The experimental procedure was identically with that described in Example 1, except that there were monitored HIV-BRU antigen expression by the method of polyclonal EIA.

HIV-1A216 = assay: Viral antigen content (polyclonal EIA) in supernatant of Supt1 culture infected with AZT-resistant HIV-1A216, with or without HBO; type: cell-based, Human Immunodeficiency Virus; conditions: Supt1/HIV-1A216
Method: 1.) Determination of the total level of viral antigen expression by means of the method of polyclonal immunoenzyme analysis (EIA) [ABBOTT™ ELISA Kit].
The values of 50 per cent effective AZT dose (ED50) were calculated conformably to oxidised and non-oxidised cells subsequently infected by HIV and treated by AZT in various concentrations.
ED50 values were derived according to the linear regression resulting averaged values of the optical density signal V(%) depending on the logarithm of AZT doses (10^−6; 10^−7; . . . 10^−12 M).[8]
Regression lines are determined with the following formula: […]
where <> and <> are regression coefficients, calculated by mean square root method.
as §1, §2, §3, §5, §6, §4, §7
The experimental procedure was identically with that described in Example 1, except that there were monitored HIV-1A216 antigen expression by the method of polyclonal EIA.

[1] = AZT 10^−11 M, day 3 after infection, OX+
[2] = AZT 10^−11 M, day 3 after infection, OX−

Cc1cn([C@H]2C[C@H](N=[N+]=[N-])[C@@H](CO)O2)c(=O)[nH]c1=O [AZT, 3-azido-2,3-didezoxythimidim]
viability of the cell culture Supt1 (MTT-test) (Supt1 cells; AZT 10^−3 M, day 2 after AZT addition, HBO+): 52.3 per cents | viability of the cell culture Supt1 (MTT-test) (Supt1 cells; AZT 10^−3 M, day 2 after AZT addition, HBO−): 45.3 per cents | viability of the cell culture Supt1 (MTT-test) (Supt1 cells; AZT 10^−3 M, day 3 after AZT addition, HBO+): 55.6 per cents | viability of the cell culture Supt1 (MTT-test) (Supt1 cells; AZT 10^−3 M, day 3 after AZT addition, HBO−): 51.1 per cents | viability of the cell culture Supt1 (MTT-test) (Supt1 cells; AZT 10^−3 M, day 5 after AZT addition, HBO+): 35.0 per cents | viability of the cell culture Supt1 (MTT-test) (Supt1 cells; AZT 10^−3 M, day 5 after AZT addition, HBO−): 25.3 per cents | viability of the cell culture Supt1 (MTT-test) (Supt1 cells; AZT 10^−4 M, day 2 after AZT addition, HBO+): 65.2 per cents | viability of the cell culture Supt1 (MTT-test) (Supt1 cells; AZT 10^−4 M, day 2 after AZT addition, HBO−): 63.1 per cents | viability of the cell culture Supt1 (MTT-test) (Supt1 cells; AZT 10^−4 M, day 3 after AZT addition, HBO+): 73.6 per cents | viability of the cell culture Supt1 (MTT-test) (Supt1 cells; AZT 10^−4 M, day 3 after AZT addition, HBO−): 50.5 per cents | viability of the cell culture Supt1 (MTT-test) (Supt1 cells; AZT 10^−4 M, day 5 after AZT addition, HBO+): 61.1 per cents | viability of the cell culture Supt1 (MTT-test) (Supt1 cells; AZT 10^−4 M, day 5 after AZT addition, HBO−): 55.1 per cents | viability of the cell culture Supt1 (MTT-test) (Supt1 cells; AZT 10^−5 M, day 2 after AZT addition, HBO+): 79.3 per cents | viability of the cell culture Supt1 (MTT-test) (Supt1 cells; AZT 10^−5 M, day 2 after AZT addition, HBO−): 72.3 per cents | viability of the cell culture Supt1 (MTT-test) (Supt1 cells; AZT 10^−5 M, day 3 after AZT addition, HBO+): 85.4 per cents | viability of the cell culture Supt1 (MTT-test) (Supt1 cells; AZT 10^−5 M, day 3 after AZT addition, HBO−): 70.0 per cents | viability of the cell culture Supt1 (MTT-test) (Supt1 cells; AZT 10^−5 M, day 5 after AZT addition, HBO+): 80.5 per cents | viability of the cell culture Supt1 (MTT-test) (Supt1 cells; AZT 10^−5 M, day 5 after AZT addition, HBO−): 71.9 per cents | viability of the cell culture Supt1 (MTT-test) (Supt1 cells; AZT 10^−6 M, day 2 after AZT addition, HBO+): 89.3 per cents | viability of the cell culture Supt1 (MTT-test) (Supt1 cells; AZT 10^−6 M, day 2 after AZT addition, HBO−): 52.7 per cents | viability of the cell culture Supt1 (MTT-test) (Supt1 cells; AZT 10^−6 M, day 3 after AZT addition, HBO+): 96.0 per cents | viability of the cell culture Supt1 (MTT-test) (Supt1 cells; AZT 10^−6 M, day 3 after AZT addition, HBO−): 80.2 per cents | viability of the cell culture Supt1 (MTT-test) (Supt1 cells; AZT 10^−6 M, day 5 after AZT addition, HBO+): 87.8 per cents | viability of the cell culture Supt1 (MTT-test) (Supt1 cells; AZT 10^−6 M, day 5 after AZT addition, HBO−): 73.0 per cents | viability of the cell culture Supt1 (MTT-test) (Supt1 cells; AZT 10^−7 M, day 2 after AZT addition, HBO+): 93.0 per cents | viability of the cell culture Supt1 (MTT-test) (Supt1 cells; AZT 10^−7 M, day 2 after AZT addition, HBO−): 53.8 per cents | viability of the cell culture Supt1 (MTT-test) (Supt1 cells; AZT 10^−7 M, day 3 after AZT addition, HBO+): 95.2 per cents | viability of the cell culture Supt1 (MTT-test) (Supt1 cells; AZT 10^−7 M, day 3 after AZT addition, HBO−): 114.1 per cents | viability of the cell culture Supt1 (MTT-test) (Supt1 cells; AZT 10^−7 M, day 5 after AZT addition, HBO+): 92.0 per cents | viability of the cell culture Supt1 (MTT-test) (Supt1 cells; AZT 10^−7 M, day 5 after AZT addition, HBO−): 79.2 per cents | viability of the cell culture Supt1 (MTT-test) (Supt1 cells; AZT 10^−8 M, day 2 after AZT addition, HBO+): 107.8 per cents | viability of the cell culture Supt1 (MTT-test) (Supt1 cells; AZT 10^−8 M, day 2 after AZT addition, HBO−): 100.6 per cents | viability of the cell culture Supt1 (MTT-test) (Supt1 cells; AZT 10^−8 M, day 3 after AZT addition, HBO+): 100.9 per cents | viability of the cell culture Supt1 (MTT-test) (Supt1 cells; AZT 10^−8 M, day 3 after AZT addition, HBO−): 118.3 per cents | viability of the cell culture Supt1 (MTT-test) (Supt1 cells; AZT 10^−8 M, day 5 after AZT addition, HBO+): 85.6 per cents | viability of the cell culture Supt1 (MTT-test) (Supt1 cells; AZT 10^−8 M, day 5 after AZT addition, HBO−): 85.9 per cents | viability of the cell culture Supt1 (MTT-test) (Supt1 cells; AZT 10^−9 M, day 2 after AZT addition, HBO+): 98.3 per cents | viability of the cell culture Supt1 (MTT-test) (Supt1 cells; AZT 10^−9 M, day 2 after AZT addition, HBO−): 95.2 per cents | viability of the cell culture Supt1 (MTT-test) (Supt1 cells; AZT 10^−9 M, day 3 after AZT addition, HBO+): 102.1 per cents | viability of the cell culture Supt1 (MTT-test) (Supt1 cells; AZT 10^−9 M, day 3 after AZT addition, HBO−): 98.6 per cents | viability of the cell culture Supt1 (MTT-test) (Supt1 cells; AZT 10^−9 M, day 5 after AZT addition, HBO+): 97.3 per cents | viability of the cell culture Supt1 (MTT-test) (Supt1 cells; AZT 10^−9 M, day 5 after AZT addition, HBO−): 80.1 per cents | Content of viral antigen in supernatant (HIV-1BRU; AZT 10^−7 M, day 3 after infection, OX+): 8.8 | Content of viral antigen in supernatant (HIV-1BRU; AZT 10^−7 M, day 3 after infection, OX−): 8.0 | Content of viral antigen in supernatant (HIV-1BRU; AZT 10^−7 M, day 5 after infection, OX+): 9.9 | Content of viral antigen in supernatant (HIV-1BRU; AZT 10^−7 M, day 5 after infection, OX−): 50.2 | Content of viral antigen in supernatant (HIV-1BRU; AZT 10^−9 M, day 3 after infection, OX+): 7.4 | Content of viral antigen in supernatant (HIV-1BRU; AZT 10^−9 M, day 3 after infection, OX−): 14.5 | Content of viral antigen in supernatant (HIV-1BRU; AZT 10^−9 M, day 5 after infection, OX+): 21.5 | Content of viral antigen in supernatant (HIV-1BRU; AZT 10^−9 M, day 5 after infection, OX−): 82.3 | Content of viral antigen in supernatant (HIV-1BRU; [1]): 8.7 | Content of viral antigen in supernatant (HIV-1BRU; [2]): 14.4 | Content of viral antigen in supernatant (HIV-1BRU; AZT 10^−11 M, day 5 after infection, OX+): 62.0 | Content of viral antigen in supernatant (HIV-1BRU; AZT 10^−11 M, day 5 after infection, OX−): 83.4 | Content of viral antigen in supernatant (HIV-1A216; AZT 10^−6 M, day 2 after infection, OX+): 20.5 | Content of viral antigen in supernatant (HIV-1A216; AZT 10^−6 M, day 2 after infection, OX−): 21.8 | Content of viral antigen in supernatant (HIV-1A216; AZT 10^−6 M, day 3 after infection, OX+): 33.3 | Content of viral antigen in supernatant (HIV-1A216; AZT 10^−6 M, day 3 after infection, OX−): 51.1 | Content of viral antigen in supernatant (HIV-1A216; AZT 10^−8 M, day 2 after infection, OX+): 29.3 | Content of viral antigen in supernatant (HIV-1A216; AZT 10^−8 M, day 2 after infection, OX−): 33.1 | Content of viral antigen in supernatant (HIV-1A216; AZT 10^−8 M, day 3 after infection, OX+): 51.8 | Content of viral antigen in supernatant (HIV-1A216; AZT 10^−8 M, day 3 after infection, OX−): 70.7 | Content of viral antigen in supernatant (HIV-1A216; AZT 10^−11 M, day 2 after infection, OX+): 29.6 | Content of viral antigen in supernatant (HIV-1A216; AZT 10^−11 M, day 2 after infection, OX−): 48.2 | Content of viral antigen in supernatant (HIV-1A216; [1]): 44.5 | Content of viral antigen in supernatant (HIV-1A216; [2]): 92.1
